The results in this text go back to patent publication US12257352B2, “Compositions and methods for delivery of biomacromolecule agents” (The Regents of the University of Michigan, priority 2016, dated 2025).

Each structure is given as a SMILES string. Peptide text beside a SMILES is read from it. * marks the point of attachment. FITC = O=C1OC2(c3ccc(O)cc3Oc3cc(O)ccc32)c2ccc(NC(=S)*)cc21

This data set can be described thus: Lymph node draining of antigen peptide and Cho-CpG (IVIS). It counts as in vivo, C57BL/6 mice. The settings on record: 31 nmol FITC-tagged Ag subcutaneously at tail base, after 1 day. The method, then:
Female C57BL/6 mice of age 6-8 weeks were purchased from Harlan Laboratories. […] 24 hours after injection, mice were euthanized by carbon dioxide inhalation and axillary lymph nodes and inguinal lymph nodes were harvested and imaged with IVIS optical imaging system (Caliper Lifesciences).
After 24 h, inguinal lymph nodes were harvested, and FITC or Cy5 fluorescence signal was measured with IVIS optical imaging system (Caliper Life Sciences).

Turning to `CC[C@H](C)[C@H](NC(=O)[C@H](CO)NC(=O)[C@H](CO)NC(=O)[C@H](CO)NC(=O)[C@@H](N)CS)C(=O)N[C@H](C(=O)N[C@@H](CC(N)=O)C(=O)N[C@@H](Cc1ccccc1)C(=O)N[C@@H](CCC(=O)O)C(=O)N[C@@H](CCCCNC(=S)Nc1ccc2c(c1)C(=O)OC21c2ccc(O)cc2Oc2cc(O)ccc21)C(=O)N[C@@H](CC(C)C)C(=O)O)[C@@H](C)CC` [free CSS-SIINFEK(FITC)L] (H-CSSSIINFEK(FITC)L-OH), the “FITC signal in inguinal dLNs” value was “minimal FITC signal in inguinal dLNs”.
